In PubChem BioAssay (NCI):
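Growth conditions: 96-well plates. Treatment: test compound, 48 hours, 5 concentrations. Analysis: linear interpolation between bracketing concentrations; unreached endpoints set to highest concentration. The concentration for 50% growth inhibition is given as GI50. At the TGI there is no net growth.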

What was measured:
Experiment in all cases: growth of human tumour cells (NCI), 48 h
SN12C renal = test system: SN12C renal
MALME-3M melanoma = test system: MALME-3M melanoma
A549 NSCLC = test system: A549 NSCLC
RPMI-8226 leukemia = test system: RPMI-8226 leukemia
NCI-H226 lung = test system: NCI-H226 lung
SNB-19 CNS = test system: SNB-19 CNS
DU-145 prostate = test system: DU-145 prostate
LOX IMVI melanoma = test system: LOX IMVI melanoma
SK-MEL-5 melanoma = test system: SK-MEL-5 melanoma
KM12 colon = test system: KM12 colon
HOP-92 NSCLC = test system: HOP-92 NSCLC
HCT-15 colon = test system: HCT-15 colon
UO-31 renal = test system: UO-31 renal
HS 578T breast = test system: HS 578T breast
MDA-N = test system: MDA-N
RXF 393 renal = test system: RXF 393 renal
SW-620 colon = test system: SW-620 colon
786-0 renal = test system: 786-0 renal
SK-MEL-28 melanoma = test system: SK-MEL-28 melanoma
IGROV1 ovarian = test system: IGROV1 ovarian
BT-549 breast = test system: BT-549 breast
OVCAR-3 ovarian = test system: OVCAR-3 ovarian
SNB-75 CNS = test system: SNB-75 CNS
MDA-MB-231 breast = test system: MDA-MB-231 breast
SR leukemia = test system: SR leukemia
K-562 leukemia = test system: K-562 leukemia
SF-295 CNS = test system: SF-295 CNS
HOP-62 NSCLC = test system: HOP-62 NSCLC
SF-539 CNS = test system: SF-539 CNS
NCI-H23 lung = test system: NCI-H23 lung
MDA-MB-435 = test system: MDA-MB-435
NCI-H460 lung = test system: NCI-H460 lung
T-47D breast = test system: T-47D breast
OVCAR-8 ovarian = test system: OVCAR-8 ovarian
HCT-116 colon = test system: HCT-116 colon
COLO 205 colon = test system: COLO 205 colon
M14 melanoma = test system: M14 melanoma
TK-10 renal = test system: TK-10 renal
EKVX NSCLC = test system: EKVX NSCLC
UACC-257 melanoma = test system: UACC-257 melanoma
CAKI-1 renal = test system: CAKI-1 renal
HT29 colon = test system: HT29 colon
A498 renal = test system: A498 renal
SF-268 CNS = test system: SF-268 CNS
OVCAR-4 ovarian = test system: OVCAR-4 ovarian
UACC-62 melanoma = test system: UACC-62 melanoma
U251 CNS = test system: U251 CNS
SK-MEL-2 melanoma = test system: SK-MEL-2 melanoma
MOLT-4 leukemia = test system: MOLT-4 leukemia
NCI/ADR-RES ovarian = test system: NCI/ADR-RES ovarian
ACHN renal = test system: ACHN renal
MCF7 breast = test system: MCF7 breast
NCI-H522 lung = test system: NCI-H522 lung
HCC-2998 colon = test system: HCC-2998 colon
OVCAR-5 ovarian = test system: OVCAR-5 ovarian
PC-3 prostate = test system: PC-3 prostate
SK-OV-3 ovarian = test system: SK-OV-3 ovarian
HL-60(TB) leukemia = test system: HL-60(TB) leukemia
CCRF-CEM leukemia = test system: CCRF-CEM leukemia

SMILES: CC(=O)OC1CCC2(C)C(CCC3C2CC(=O)C2(C)C3CC(N3CC3)C2C(C)=O)C1 (stereo unspecified)
- TGI (SN12C renal): 61 µM
- TGI (MALME-3M melanoma): 36.5 µM
- TGI (A549 NSCLC): > 100 µM
- TGI (RPMI-8226 leukemia): 83.6 µM
- TGI (NCI-H226 lung): 37.8 µM
- TGI (SNB-19 CNS): 63.4 µM
- TGI (DU-145 prostate): > 100 µM
- TGI (LOX IMVI melanoma): 29.3 µM
- TGI (SK-MEL-5 melanoma): 32.3 µM
- TGI (KM12 colon): 43.4 µM
- TGI (HOP-92 NSCLC): 43.1 µM
- TGI (HCT-15 colon): 70.6 µM
- TGI (UO-31 renal): 46.4 µM
- TGI (HS 578T breast): 40.9 µM
- TGI (MDA-N): 56.2 µM
- TGI (RXF 393 renal): 42.3 µM
- TGI (SW-620 colon): > 100 µM
- TGI (786-0 renal): 64.4 µM
- TGI (SK-MEL-28 melanoma): > 100 µM
- TGI (IGROV1 ovarian): 56.4 µM
- TGI (BT-549 breast): 40.1 µM
- TGI (OVCAR-3 ovarian): 97.3 µM
- TGI (SNB-75 CNS): 42.6 µM
- TGI (MDA-MB-231 breast): 38.1 µM
- TGI (SR leukemia): 64.7 µM
- TGI (K-562 leukemia): 89.7 µM
- TGI (SF-295 CNS): 51 µM
- TGI (HOP-62 NSCLC): > 100 µM
- TGI (SF-539 CNS): 37.3 µM
- TGI (NCI-H23 lung): 44.9 µM
- TGI (MDA-MB-435): 51.5 µM
- TGI (NCI-H460 lung): 33.9 µM
- TGI (T-47D breast): 65.2 µM
- TGI (OVCAR-8 ovarian): 46.7 µM
- TGI (HCT-116 colon): > 100 µM
- TGI (COLO 205 colon): 35.7 µM
- TGI (M14 melanoma): 51.7 µM
- TGI (TK-10 renal): 45.3 µM
- TGI (EKVX NSCLC): 40.9 µM
- TGI (UACC-257 melanoma): 32.5 µM
- TGI (CAKI-1 renal): 34.6 µM
- TGI (HT29 colon): > 100 µM
- TGI (A498 renal): 53.9 µM
- TGI (SF-268 CNS): 27.1 µM
- TGI (OVCAR-4 ovarian): > 100 µM
- TGI (UACC-62 melanoma): 36.5 µM
- TGI (U251 CNS): 37.8 µM
- TGI (SK-MEL-2 melanoma): 36.1 µM
- TGI (MOLT-4 leukemia): 34.4 µM
- TGI (NCI/ADR-RES ovarian): 94.2 µM
- TGI (ACHN renal): 29.6 µM
- TGI (MCF7 breast): 47.1 µM
- TGI (NCI-H522 lung): 29.8 µM
- TGI (HCC-2998 colon): 32 µM
- TGI (OVCAR-5 ovarian): > 100 µM
- TGI (PC-3 prostate): 30 µM

SMILES: CCOC(=O)/C=C(\C(=O)OCC)n1ccc(=O)n(Cc2cnnn2CCCCOC(C)=O)c1=O
- TGI (SN12C renal): 45.3 µM
- TGI (MALME-3M melanoma): 3.84 µM
- TGI (A549 NSCLC): 40.2 µM
- TGI (RPMI-8226 leukemia): > 22.5 µM
- TGI (NCI-H226 lung): 39.4 µM
- TGI (DU-145 prostate): 36.1 µM
- TGI (LOX IMVI melanoma): 17.6 µM
- TGI (SK-MEL-5 melanoma): 30.2 µM
- TGI (KM12 colon): 30.5 µM
- TGI (HOP-92 NSCLC): 5.63 µM
- TGI (HCT-15 colon): 20.3 µM
- TGI (UO-31 renal): 36.5 µM
- TGI (HS 578T breast): 58.9 µM
- TGI (MDA-N): 51.4 µM
- TGI (RXF 393 renal): 2.16 µM
- TGI (SW-620 colon): > 41.1 µM
- TGI (786-0 renal): > 37.5 µM
- TGI (SK-MEL-28 melanoma): 21.4 µM
- TGI (IGROV1 ovarian): 28.4 µM
- TGI (BT-549 breast): 30.2 µM
- TGI (OVCAR-3 ovarian): 21.5 µM
- TGI (SNB-75 CNS): 31.5 µM
- TGI (MDA-MB-231 breast): 38.1 µM
- GI50 (SR leukemia): 1.68 µM
- TGI (SR leukemia): 5.49 µM
- GI50 (K-562 leukemia): 2.1 µM
- TGI (K-562 leukemia): 10.2 µM
- TGI (SF-295 CNS): > 59.8 µM
- TGI (HOP-62 NSCLC): 41.9 µM
- TGI (SF-539 CNS): 5.44 µM
- TGI (NCI-H23 lung): 18.5 µM
- TGI (MDA-MB-435): 22.9 µM
- TGI (NCI-H460 lung): 26 µM
- TGI (T-47D breast): 17.4 µM
- TGI (OVCAR-8 ovarian): 13.9 µM
- TGI (HCT-116 colon): > 45.3 µM
- TGI (COLO 205 colon): 5.8 µM
- TGI (M14 melanoma): 38.8 µM
- TGI (TK-10 renal): 8.96 µM
- TGI (EKVX NSCLC): 24.8 µM
- TGI (UACC-257 melanoma): 27.4 µM
- TGI (CAKI-1 renal): 6.8 µM
- TGI (SK-OV-3 ovarian): > 75.7 µM
- TGI (HT29 colon): 23.5 µM
- TGI (A498 renal): 37.6 µM
- TGI (SF-268 CNS): 34.1 µM
- TGI (OVCAR-4 ovarian): 30.2 µM
- TGI (UACC-62 melanoma): 23.4 µM
- TGI (U251 CNS): > 59.3 µM
- TGI (SK-MEL-2 melanoma): 36.3 µM
- GI50 (MOLT-4 leukemia): 2.23 µM
- TGI (MOLT-4 leukemia): 5.19 µM
- TGI (NCI/ADR-RES ovarian): 40.1 µM
- TGI (ACHN renal): 5.52 µM
- TGI (MCF7 breast): 18.8 µM
- TGI (NCI-H522 lung): 3.05 µM
- TGI (HCC-2998 colon): 35.5 µM
- TGI (OVCAR-5 ovarian): 29.4 µM
- TGI (PC-3 prostate): 30.8 µM

SMILES: CC(=O)Nc1cc2cc(N)ccc2oc1=O
- TGI (SN12C renal): > 100 µM
- TGI (MALME-3M melanoma): > 100 µM
- TGI (A549 NSCLC): > 100 µM
- TGI (RPMI-8226 leukemia): > 100 µM
- TGI (NCI-H226 lung): > 100 µM
- TGI (SNB-19 CNS): > 100 µM
- TGI (DU-145 prostate): > 100 µM
- TGI (LOX IMVI melanoma): > 100 µM
- TGI (SK-MEL-5 melanoma): > 100 µM
- TGI (KM12 colon): > 100 µM
- TGI (HOP-92 NSCLC): > 100 µM
- TGI (HCT-15 colon): > 100 µM
- TGI (UO-31 renal): > 100 µM
- TGI (HS 578T breast): > 100 µM
- TGI (MDA-N): > 100 µM
- TGI (RXF 393 renal): > 100 µM
- TGI (SW-620 colon): > 100 µM
- TGI (786-0 renal): > 100 µM
- TGI (SK-MEL-28 melanoma): > 100 µM
- TGI (IGROV1 ovarian): > 100 µM
- TGI (BT-549 breast): > 100 µM
- TGI (OVCAR-3 ovarian): > 100 µM
- TGI (MDA-MB-231 breast): > 100 µM
- TGI (SR leukemia): > 100 µM
- TGI (K-562 leukemia): > 100 µM
- TGI (SF-295 CNS): > 100 µM
- TGI (HOP-62 NSCLC): > 100 µM
- TGI (SF-539 CNS): > 100 µM
- TGI (NCI-H23 lung): > 100 µM
- TGI (MDA-MB-435): > 100 µM
- TGI (HL-60(TB) leukemia): > 100 µM
- TGI (NCI-H460 lung): > 100 µM
- TGI (T-47D breast): > 100 µM
- TGI (OVCAR-8 ovarian): > 100 µM
- TGI (HCT-116 colon): > 100 µM
- TGI (COLO 205 colon): > 100 µM
- TGI (M14 melanoma): > 100 µM
- TGI (TK-10 renal): > 100 µM
- TGI (EKVX NSCLC): > 100 µM
- TGI (UACC-257 melanoma): > 100 µM
- TGI (CAKI-1 renal): > 100 µM
- TGI (HT29 colon): > 100 µM
- TGI (A498 renal): > 100 µM
- TGI (SF-268 CNS): > 100 µM
- TGI (OVCAR-4 ovarian): > 100 µM
- TGI (U251 CNS): > 100 µM
- TGI (SK-MEL-2 melanoma): > 100 µM
- TGI (MOLT-4 leukemia): > 100 µM
- TGI (NCI/ADR-RES ovarian): > 100 µM
- TGI (ACHN renal): > 100 µM
- TGI (CCRF-CEM leukemia): > 100 µM
- TGI (MCF7 breast): > 100 µM
- TGI (NCI-H522 lung): > 100 µM
- TGI (HCC-2998 colon): > 100 µM
- TGI (OVCAR-5 ovarian): > 100 µM
- TGI (PC-3 prostate): > 100 µM
